Values quoted from earlier work as cited in patent US10500232B2, “Small molecule cellular reprogramming to generate neuronal cells” (The J. David Gladstone Institutes, a testamentary trust …, priority 2013, dated 2019).

Experiments:
[1] = system: mGlu(2) receptors; settings: rodent and human; cited from earlier work
[2] = system: mGlu(3) receptors; settings: rodent and human; cited from earlier work
[3] = molecular target: mGlu4 (Homo sapiens, UniProt Q14833); settings: read-out: EC50 against mGlu4; cited from earlier work
[4] = molecular target: various mGlu receptors; settings: Ki depends on which receptor is bound; cited from earlier work

Sequence of mGlu4 (Q14833 33-912): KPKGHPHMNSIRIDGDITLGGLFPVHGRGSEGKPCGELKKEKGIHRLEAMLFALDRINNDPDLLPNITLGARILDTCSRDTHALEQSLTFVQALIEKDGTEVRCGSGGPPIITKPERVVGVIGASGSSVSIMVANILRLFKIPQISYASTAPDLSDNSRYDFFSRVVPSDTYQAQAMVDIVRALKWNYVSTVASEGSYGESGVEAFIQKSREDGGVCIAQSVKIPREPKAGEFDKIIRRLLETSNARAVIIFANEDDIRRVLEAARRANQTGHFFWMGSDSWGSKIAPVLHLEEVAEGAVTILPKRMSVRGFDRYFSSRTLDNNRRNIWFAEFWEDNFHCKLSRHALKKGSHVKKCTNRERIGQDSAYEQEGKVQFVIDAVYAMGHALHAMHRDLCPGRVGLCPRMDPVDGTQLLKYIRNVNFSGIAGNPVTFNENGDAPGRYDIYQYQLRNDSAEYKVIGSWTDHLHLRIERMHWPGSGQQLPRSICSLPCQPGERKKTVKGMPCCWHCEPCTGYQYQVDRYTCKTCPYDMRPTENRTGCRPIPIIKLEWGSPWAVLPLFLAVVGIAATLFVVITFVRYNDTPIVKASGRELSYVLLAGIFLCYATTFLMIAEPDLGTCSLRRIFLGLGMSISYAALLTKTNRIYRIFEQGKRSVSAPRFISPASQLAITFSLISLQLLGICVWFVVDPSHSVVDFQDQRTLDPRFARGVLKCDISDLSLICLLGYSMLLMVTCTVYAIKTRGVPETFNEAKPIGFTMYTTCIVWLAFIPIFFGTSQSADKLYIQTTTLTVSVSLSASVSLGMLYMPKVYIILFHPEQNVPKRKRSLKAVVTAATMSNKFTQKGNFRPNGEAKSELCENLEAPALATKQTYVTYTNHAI

For `NC1(C(=O)O)CC(F)C2C(C(=O)O)C21` (stereo not shown) [LY459477, 2-amino-4-fluorobicyclo[3.1.0]hexane-2,6-dicarboxylic acid], the “potency for mGlu(2) receptors” value [1] is listed as 1 to 2 nM and the “potency for mGlu(3) receptors” value [2] is listed as 1 to 2 nM.
For `COc1cc(NC(=O)c2ccccn2)ccc1Cl` [ML128, N-(4-chloro-3-methoxyphenyl)pyridine-2-carboxamide], the EC50 [3] is given as 200 to 2300 nM.
In the case of `N[C@@]1(C(=O)O)COC2C1[C@H]2C(=O)O` (stereo partly drawn) [LY379268, (4R,6R)-4-amino-2-oxabicyclo[3.1.0]hexane-4,6-dicarboxylic acid], the Ki [4] is given as 2.7 to 100000 nM.
